One test has as its target T1, PLK1 kinase domain (Homo sapiens, UniProt P53350).
T1 construct: His-tagged PLK kinase domain (amino acids 21-346 preceded by MKKGHHHHHHD); made in house; host or cells: baculovirus-infected T. ni insect cells
Nature of the test: Assay for inhibition of PLK1 (33P SPA kinase assay). The class given is biochemical. As to conditions: 2 nM PLK1 kinase domain, 1 μM ATP, 1 μM substrate peptide; read-out: PLK1 pIC50 (converted). Here is the method: I. Assay for Inhibition of PLK1
A. Preparation of 6× N-Terminal His-Tagged PLK Kinase Domain
6× N-terminal His-tagged PLK kinase domain (amino acids 21-346 preceded by MKKGHHHHHHD) SEQ ID: No. 1. was prepared from baculovirus infected T. ni cells under polyhedrin promoter control. All procedures were performed at 4° C. Cells were lysed in 50 mM HEPES, 200 mM NaCl, 50 mM imidazole, 5% glycerol; pH 7.5. The homogenate was centrifuged at 14K rpm in a SLA-1500 rotor for 1 br and the supernatant filtered through a 1.2 micron filter. The supernatant was loaded onto a Nickel chelating Sepharose (Amersham Pharmacia) column and washed with lysis buffer. Protein was eluted using 20%, 30% and 100% buffer B steps where buffer B was 50 mM HEPES, 200 mM NaCl, 300 mM imidazole, 5% glycerol; pH 7.5. Fractions containing PLK were determined by SOS-PAGE. Fractions containing PLK were diluted five-fold with 50 mM HEPES, 1 mM DTT, 5% glycerol; pH 7.5, then loaded on an SP Sepharose (Amersham Pharmacia) column. After washing the column with 50 mM HEPES, 1 mM DTT, 5% glycerol; pH 7.5, PLK was step eluted with 50 mM HEPES, 1 mM DTT, 500 mM NaCl; 5% glycerol; pH 7.5. PLK was concentrated using a 10 kDa molecular weight cutoff membrane and then loaded onto a Superdex 200 gel filtration (Amersham Pharmacia) column equilibrated in 25 mM HEPES, 1 mM DTT, 500 mM NaCl, 5% glycerol; pH 7.5. Fractions containing PLK were determined by SDS-PAGE. PLK was pooled, aliquoted and stored at −80° C. Samples were quality controlled using mass spectrometry, N-terminal sequencing and amino acid analysis.
B. Enzyme Activity ± Inhibitors was Determined as Follows:
All measurements were obtained under conditions where signal production increased linearly with time and enzyme. Test compounds were added to white 384-well assay plates (0.1 μL for 10 μL and some 20 μL assays, 1 μL for some 20 μL assays) at variable known concentrations in 100% DMSO. DMSO (1-5% final, as appropriate) and EDTA (65 mM in reaction) as controls. Reaction Mix was prepared as follows at 22° C.: • 25 mM HEPES, pH 7.2 • 15 mM MgCl2 • 1 μM ATP • 0.05 μCi/well ^33P-γ ATP (10 Ci/mMol) • 1 μM substrate peptide (Biotin-Ahx-SFNDTLDFD) SEQ ID:No. 2. • 0.15 mg/mL BSA • 1 mM DTT • 2 nM PLK1 kinase domain (added last)
Reaction Mix (10 or 20 μL) was quickly added to each well immediately following addition of enzyme via automated liquid handlers and incubated 1-1.5 h at 22° C. […] Plates were sealed with dear plastic seals, spun at 500×g for 1 min or settled overnight, and counted in Packard TopCount for 30 seconds/well (regular SPA) or imaged using a Viewlux imager (LeadSeeker SPA). […]

Another test deals with HCT116. Nature of the test: Inhibition of cell proliferation, HCT116. In kind it is cell-based. As to conditions: Homo sapiens, HCT-116; 72 h treatment; methylene blue or CellTiter-Glo. For orientation: Cellular ATP, detected with luciferase, serves as a proxy for viable cell number.
Another test concerns COLO205. Put plainly: Inhibition of cell proliferation, COLO205. As to conditions: Homo sapiens, COLO 205; Colon; 72 h; methylene blue or CellTiter-Glo. In kind it is cell-based. Here is the method: (§1) II. Inhibition of Cell Proliferation by PLK1 Inhibitors.
(§2) Exponentially growing cell lines of different tumor origins, cultured in appropriate media containing 10% fetal bovine serum at 37° C. in a 5% CO2 incubator were plated in 96 or 384-well plates. Twenty four hours post-plating, cells were treated with different concentrations of test compounds ranging from 20 μM to 0.04 nM. Several wells were left untreated as a control. Seventy two hours post-treatment, cell numbers were determined using different techniques; 100 μl per well of methylene blue (Sigma M9140) (0.5% in 50:50 Ethanol:water), or 10-100 μl per well of CellTiter-Glo (Promega #G7573), depending on well size. For methylene blue staining, stain was incubated at room temperature for 30 minutes before plates were rinsed and dye solubilized in 1% N-lauroyl sarcosine, sodium salt, (Sigma L5125, in PBS). Plates were read on a microplate reader, measuring the OD at 620 nm. For CellTiter-Glo, plates were incubated at room temperature for 15 minutes and the chemiluminescent signal was read on the Victor V or Envison 2100 reader.
(§3) Percent inhibition of cell growth was expressed as percent proliferation relative to 100% proliferation (control). Concentration of test compound that inhibited 50% of cell growth (IC50) was determined by 4 parameter fit of data using XLfit, (value of no cell control was substracted from all samples for background). The data are shown in Table 1 and Table 2 below and represent a compilation of several different experiments each performed using the general parameters outlined above, although minor variations may have been employed in some instances, in Table 1 and Table 2, +=IC50>1 μM; ++=IC50 0.5-1 μM: +++=IC50<0.5 μM.

For another test, the system named is HT29. Nature of the test: Inhibition of cell proliferation, HT29. As to conditions: Homo sapiens, HT-29; Colon; 72 h; methylene blue or CellTiter-Glo. The class given is cell-based. On the procedure: as §1, §2, §3
The next test has as its system MX-1. Put plainly: Inhibition of cell proliferation, MX-1. The class given is cell-based. As to conditions: Homo sapiens, MX1; Breast; 72 h; methylene blue or CellTiter-Glo. Here is the method:
as §1, §2, §3

In the next test the test system is SKOV-3. Put plainly: Inhibition of cell proliferation, SKOV-3. In kind it is cell-based. The note with it: Homo sapiens, SK-OV-3; Ovarian; 72 h; methylene blue or CellTiter-Glo. Here is the method:
as §1, §2, §3

A further test has as its system A549-L. Put plainly: Inhibition of cell proliferation, A549-L. In kind it is cell-based. As to conditions: lung; 72 h; methylene blue or CellTiter-Glo. Here is the method:
as §1, §2, §3

Another test relates to P388. Put plainly: Inhibition of cell proliferation, P388. The class given is cell-based. The note with it: Mouse leukemia, 72 h, methylene blue or CellTiter-Glo. Here is the method: as §1, §2, §3

Where only a bound is given, the exact number is not on record here.

T1 sequence (P53350 21-346): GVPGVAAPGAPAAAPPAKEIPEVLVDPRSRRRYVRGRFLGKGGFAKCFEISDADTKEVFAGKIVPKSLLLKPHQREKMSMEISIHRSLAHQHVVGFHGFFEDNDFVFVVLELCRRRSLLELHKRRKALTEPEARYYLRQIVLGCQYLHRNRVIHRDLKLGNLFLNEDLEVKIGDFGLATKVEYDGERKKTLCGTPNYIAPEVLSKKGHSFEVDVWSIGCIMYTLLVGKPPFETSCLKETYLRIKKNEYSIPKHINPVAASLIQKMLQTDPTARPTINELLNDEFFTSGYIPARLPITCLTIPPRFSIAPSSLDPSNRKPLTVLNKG

With `C[C@@H](Oc1cc(-n2cnc3ccc(S(C)(=O)=O)cc32)sc1C(N)=O)c1cccc(OC2CCNCC2)c1Cl` [Example 60, 3-({(1R)-1-[2-chloro-3-(4-piperidinyloxy)phenyl]ethyl}oxy)-5-[6-(methylsulfonyl)-1H-benzimidazol-1-yl]-2-thiophenecarboxamide], the IC50 was below 100 nM on PLK1 kinase domain and above 1000 nM in the test on HCT116.

In the case of `Cc1cc(-c2ccc3c(c2)ncn3-c2cc(O[C@H](C)c3cccc(OC4CCNCC4)c3Cl)c(C(N)=O)s2)ccn1` [Example 49, 3-({(1R)-1-[2-Chloro-3-(4-piperidinyloxy)phenyl]ethyl}oxy)-5-[5-(2-methyl-4-pyridinyl)-1H-benzimidazol-1-yl]-2-thiophenecarboxamide], the IC50 with HCT116, in the test on COLO205, in the test on HT29, with MX-1 and with SKOV-3 was below 500 nM throughout.

On to `C[C@@H](Oc1cc(-n2cnc3ccc(CS(C)(=O)=O)cc32)sc1C(N)=O)c1cccc(OC[C@H]2CCCN2C)c1Cl` [Example 58, 3-({(1R)-1-[2-chloro-3-({[(2R)-1-methyl-2-pyrrolidinyl]methyl}oxy)phenyl]ethyl}oxy)-5-{6-[(methylsulfonyl)methyl]-1H-benzimidazol-1-yl}-2-thiophenecarboxamide], for which the IC50 is below 100 nM at PLK1 kinase domain and above 1000 nM with HCT116.

On to `C[C@@H](Oc1cc(-n2cnc3cc(-c4cnn(C)c4)ccc32)sc1C(N)=O)c1cccc(OCC2CCN(C)CC2)c1Cl` [Example 45, 3-{[(1R)-1-(2-Chloro-3-{[(1-methyl-4-piperidinyl)methyl]oxy}phenyl)ethyl]oxy}-5-[5-(1-methyl-1H-pyrazol-4-yl)-1H-benzimidazol-1-yl]-2-thiophenecarboxamide], for which the IC50 in the test with HCT116, in the test with A549-L, with COLO205, in the test with HT29, with MX-1 and in the test on SKOV-3 was below 500 nM in each case. In addition, the IC50 in the test on P388 is below 500 nM.

For the compound `CC(Oc1cc(-n2cnc3cc(-c4cnn(C)c4)ccc32)sc1C(N)=O)c1cc(OC2CCN(C)CC2)ccn1` (stereo not drawn) [Example 86, 3-[(1-{4-[(1-Methyl-4-piperidinyl)oxy]-2-pyridinyl}ethyl)oxy]-5-[5-(1-methyl-1H-pyrazol-4-yl)-1H-benzimidazol-1-yl]-2-thiophenecarboxamide], the results for the IC50 at PLK1 kinase domain and in the test with HCT116 were below 100 nM and above 1000 nM, respectively.

Consider `C[C@@H](Oc1cc(-n2cnc3cc(S(C)(=O)=O)ccc32)sc1C(N)=O)c1cccc(OC2CCNCC2)c1Cl` [Example 59, 3-({(1R)-1-[2-chloro-3-(4-piperidinyloxy)phenyl]ethyl}oxy)-5-[5-(methylsulfonyl)-1H-benzimidazol-1-yl]-2-thiophenecarboxamide], for which the IC50 is below 100 nM at PLK1 kinase domain and above 1000 nM with HCT116.

As for `C[C@@H](Oc1cc(-n2cnc3cc(Cl)ccc32)sc1C(N)=O)c1cccc(OC2CCN(C)CC2)c1Cl` [Example 3, 5-(5-Chloro-1H-benzimidazol-1-yl)-3-((1R)-1-{2-chloro-3-[(1-methylpiperidin-4-yl)oxy]phenyl}ethoxy)thiophene-2-carboxamide], the IC50 in the test on HCT116, in the test with COLO205, with HT29, in the test on MX-1, in the test with SKOV-3 and with P388 was below 500 nM throughout.

Regarding `C[C@@H](Oc1cc(-n2cnc3ccc(OC(F)(F)F)cc32)sc1C(N)=O)c1cccc(OC2CCN(C)CC2)c1Cl` [Example 64, 3-[((1R)-1-(2-chloro-3-[(1-methyl-4-piperidinyl)oxy]phenyl}ethyl)oxy]-5-{6-[(trifluoromethyl)oxy]-1H-benzimidazol-1-yl}-2-thiophenecarboxamide], the IC50 in the test on HCT116 is below 500 nM.

As for `C[C@@H](Oc1cc(-n2cnc3cc(Cl)ccc32)sc1C(N)=O)c1cccc(OC[C@H]2CNCCO2)c1Cl` [Example 27, 5-(5-Chloro-1H-benzimidazol-1-yl)-3-{[(1R)-1-(2-chloro-3-{[(2R)-2-morpholinomethyl]oxy}phenyl)ethyl]oxy}-2-thiophenecarboxamide], the IC50 in the test with HCT116 is below 500 nM.

Turning to `C[C@@H](Oc1cc(-n2cnc3cc(-c4cnn(C)c4)ccc32)sc1C(N)=O)c1cccc(OC2CCN(C(=O)OC(C)(C)C)CC2)c1Cl` [Example 46, 1,1-Dimethylethyl 4-({3-[(1R)-1-({2-(aminocarbonyl)-5-[5-(1-methyl-1H-pyrazol-4-yl)-1H-benzimidazol-1-yl]-3-thienyl}oxy)ethyl]-2-chlorophenyl}oxy)-1-piperidinecarboxylate], in the test with HCT116, the IC50 was below 500 nM.

With `C[C@@H](Oc1cc(-n2cnc3cc(-c4ccc(NC5CCN(C)CC5)nc4)ccc32)sc1C(N)=O)c1cccc(OC2CCN(C)CC2)c1Cl` [Example 18], in the test with HCT116, the IC50 was below 500 nM.

As to `C[C@@H](Oc1cc(-n2cnc3cc(F)c(F)cc32)sc1C(N)=O)c1cccc(OC2CCN(C)CC2)c1Cl` [Example 66, 3-[((1R)-1-(2-chloro-3-[(1-methyl-4-piperidinyl)oxy]phenyl}ethyl)-oxy]-5-(5,6-difluoro-1H-benzimidazol-1-yl)-2-thiophenecarboxamide], the IC50 with HCT116, in the test with COLO205, in the test on HT29, in the test on MX-1, with SKOV-3 and in the test on P388 was below 500 nM throughout.

Source of the values: patent publication US20100075960A1 (priority 2006, published 2010).
